According to the NIST ThermoML archive (doi:10.1016/j.fluid.2008.03.004):

Test: xn = mol fraction of the nth substance listed
Settings: 101 kPa, Liquid; for speed of sound: Sing-around technique in a fixed-path interferometer

CCOC(C)(C)C [2-ethoxy-2-methylpropane] + Cc1cccc(C)c1
Settings | mass density [kg/m3] | speed of sound [m/s]
305.65 K, x1 = 0.05 | 847.026 | –
305.65 K, x1 = 0.099 | 840.74 | –
305.65 K, x1 = 0.2 | 828.116 | –
305.65 K, x1 = 0.3 | 815.278 | –
305.65 K, x1 = 0.4 | 802.699 | –
305.65 K, x1 = 0.497 | 790.26 | –
305.65 K, x1 = 0.598 | 777.566 | –
305.65 K, x1 = 0.698 | 765.236 | –
305.65 K, x1 = 0.8 | 752.76 | –
305.65 K, x1 = 0.898 | 740.246 | –
305.65 K, x1 = 0.95 | 733.801 | –
305.65 K, x1 = 1 | 727.038 | –
308.15 K, x1 = 0.05 | 844.847 | 1261.4
308.15 K, x1 = 0.099 | 838.542 | 1248.3
308.15 K, x1 = 0.2 | 825.874 | 1219
308.15 K, x1 = 0.3 | 812.993 | 1189.3
308.15 K, x1 = 0.4 | 800.369 | 1159.9
308.15 K, x1 = 0.497 | 787.887 | 1131
308.15 K, x1 = 0.598 | 775.147 | 1101.7
308.15 K, x1 = 0.698 | 762.77 | 1074.5
308.15 K, x1 = 0.8 | 750.245 | 1045.6
308.15 K, x1 = 0.898 | 737.68 | 1018.8
308.15 K, x1 = 0.95 | 731.212 | 1004.3
308.15 K, x1 = 1 | 724.443 | 986.39
310.65 K, x1 = 0.05 | 842.667 | 1251.2
310.65 K, x1 = 0.099 | 836.338 | 1238
310.65 K, x1 = 0.2 | 823.629 | 1208.6
310.65 K, x1 = 0.3 | 810.701 | 1178.8
310.65 K, x1 = 0.4 | 798.033 | 1149.3
310.65 K, x1 = 0.497 | 785.51 | 1120.3
310.65 K, x1 = 0.598 | 772.72 | 1091
310.65 K, x1 = 0.698 | 760.296 | 1063.7
310.65 K, x1 = 0.8 | 747.726 | 1034.7
310.65 K, x1 = 0.898 | 735.108 | 1007.8
310.65 K, x1 = 0.95 | 728.609 | 993.27
310.65 K, x1 = 1 | 721.826 | 975.42
313.15 K, x1 = 0.05 | 840.482 | 1241
313.15 K, x1 = 0.099 | 834.132 | 1227.8
313.15 K, x1 = 0.2 | 821.379 | 1198.3
313.15 K, x1 = 0.3 | 808.405 | 1168.3
313.15 K, x1 = 0.4 | 795.695 | 1138.9
313.15 K, x1 = 0.497 | 783.123 | 1109.8
313.15 K, x1 = 0.598 | 770.288 | 1080.4
313.15 K, x1 = 0.698 | 757.817 | 1053
313.15 K, x1 = 0.8 | 745.2 | 1024
313.15 K, x1 = 0.898 | 732.523 | 996.88
313.15 K, x1 = 0.95 | 726.007 | 982.39
313.15 K, x1 = 1 | 719.179 | 964.53
315.65 K, x1 = 0.05 | 838.29 | 1230.9
315.65 K, x1 = 0.099 | 831.922 | 1217.6
315.65 K, x1 = 0.2 | 819.125 | 1188
315.65 K, x1 = 0.3 | 806.105 | 1157.9
315.65 K, x1 = 0.4 | 793.351 | 1128.5
315.65 K, x1 = 0.497 | 780.733 | 1099.2
315.65 K, x1 = 0.598 | 767.848 | 1069.7
315.65 K, x1 = 0.698 | 755.328 | 1042.3
315.65 K, x1 = 0.8 | 742.656 | 1013.2
315.65 K, x1 = 0.898 | 729.931 | 985.99
315.65 K, x1 = 0.95 | 723.382 | 971.39
315.65 K, x1 = 1 | 716.527 | 953.54
318.15 K, x1 = 0.05 | 836.094 | 1220.7
318.15 K, x1 = 0.099 | 829.704 | 1207.4
318.15 K, x1 = 0.2 | 816.865 | 1177.8
318.15 K, x1 = 0.3 | 803.8 | 1147.6
318.15 K, x1 = 0.4 | 790.999 | 1118
318.15 K, x1 = 0.497 | 778.333 | 1088.7
318.15 K, x1 = 0.598 | 765.399 | 1059.2
318.15 K, x1 = 0.698 | 752.842 | 1031.8
318.15 K, x1 = 0.8 | 740.101 | 1002.4
318.15 K, x1 = 0.898 | 727.323 | 975.1
318.15 K, x1 = 0.95 | 720.743 | 960.42
318.15 K, x1 = 1 | 713.96 | 942.67
320.65 K, x1 = 0.05 | 833.892 | 1210.6
320.65 K, x1 = 0.099 | 827.484 | 1197.3
320.65 K, x1 = 0.2 | 814.602 | 1167.6
320.65 K, x1 = 0.3 | 801.489 | 1137.3
320.65 K, x1 = 0.4 | 788.639 | 1107.6
320.65 K, x1 = 0.497 | 775.926 | 1078.3
320.65 K, x1 = 0.598 | 762.944 | 1048.6
320.65 K, x1 = 0.698 | 750.335 | 1021.1
320.65 K, x1 = 0.8 | 737.539 | 991.66
320.65 K, x1 = 0.898 | 724.705 | 964.24
320.65 K, x1 = 0.95 | 718.093 | 949.5
320.65 K, x1 = 1 | 711.25 | 931.73
323.15 K, x1 = 0.05 | 831.689 | 1200.6
323.15 K, x1 = 0.099 | 825.258 | 1187.2
323.15 K, x1 = 0.2 | 812.331 | 1157.4
323.15 K, x1 = 0.3 | 799.17 | 1127
323.15 K, x1 = 0.4 | 786.273 | 1097.3
323.15 K, x1 = 0.497 | 773.51 | 1067.8
323.15 K, x1 = 0.598 | 760.487 | 1038.2
323.15 K, x1 = 0.698 | 747.817 | 1010.4
323.15 K, x1 = 0.8 | 734.964 | 980.96
323.15 K, x1 = 0.898 | 722.075 | 953.5
323.15 K, x1 = 0.95 | 715.433 | 938.66
323.15 K, x1 = 1 | 708.642 | 920.73
